Experimental data: US4210663A, “Halogen substituted benzopyran- and benzothiopyran-4-carboxylic acids” (Pfizer Inc., priority 1978, dated 1980)

Biological target: T1, aldose reductase (Bos taurus, UniProt P16116)
T1 construct: partially purified aldose reductase enzyme obtained from calf lens; from tissue; host or cells: calf lens
Assay: inhibition of aldose reductase enzyme activity (procedure of U.S. Pat. No. 3,821,383, based on Hayman et al.)
Format: biochemical
Conditions: partially purified aldose reductase from calf lens, / = results of duplicate tests; for inhibition at 100 µM: 10^-4 M
Description: Pat. No. 3,821,383 and based on the procedure of Hayman et. al., Journal of Biological Chemistry, 240, 877 (1965). The substrate employed was partially purified aldose reductase enzyme obtained from calf lens. The results obtained with each compound at a concentration of 10^-4 M are expressed as percent inhibition of enzyme activity.

| SMILES | inhibition at 100 µM [%] | % Inhibition at 10^-4 M (aldose reductase enzyme activity) [%] |
| --- | --- | --- |
| O=C(O)CC1CCOc2ccc(Cl)cc21 (stereo not drawn) [Example 18, 6-chloro-3,4-dihydro-2H-1-benzopyran-4-acetic acid] | 69 |  |
| O=C(O)C1CCSc2ccc(Cl)cc21 (stereo not drawn) [Example 16, 6-chloro-3,4-dihydro-2H-1-benzothiopyran-4-carboxylic acid] | 70 |  |
| O=C(O)C1CCOc2c(Cl)cc(-c3ccccc3)cc21 (stereo not drawn) [Example 2, 6-phenyl-8-chloro-3,4-dihydro-2H-1-benzopyran-4-carboxylic acid] | 74 | 67 |
| O=C(O)C1CCSc2cc(Cl)c(Cl)cc21 (stereo not drawn) [Example 4, 6,7-dichloro-3,4-dihydro-2H-1-benzothiopyran-4-carboxylic acid] | 92 | 76 |
| O=C(O)C1CCOc2ccc(Cl)cc21 (stereo not drawn) [Example 12, 6-chloro-3,4-dihydro-2H-1-benzopyran-4-carboxylic acid] | 85 | 81 |
| Cc1cc(Cl)cc2c1OCCC2C(=O)O (stereo not drawn) [Example 6, 6-chloro-8-methyl-3,4-dihydro-2H-1-benzopyran-4-carboxylic acid] | 87 | 89 |
| O=C(O)C1CCOc2c(Cl)cc(Cl)cc21 (stereo not drawn) [Example 8, 6,8-dichloro-3,4-dihydro-2H-1-benzopyran-4-carboxylic acid] | 82 | 89 |
| O=C(O)C1CCOc2c1cc(Cl)c1ccccc21 (stereo not drawn) [Example 14, 6-chloro-3,4-dihydro-2H-naphtho[1,2-b]pyran-4-carboxylic acid] | 88 | 90 |
| O=C(O)C1CCOc2ccc(F)cc21 (stereo not drawn) [Example 10, 6-fluoro-3,4-dihydro-2H-1-benzopyran-4-carboxylic acid] | 71 |  |
